According to PMC7366314 (ACS chemical biology, 2020):

Legend:
Leprdb mice = experiment: Anti-hyperglycemic effect in diabetic Leprdb; format: in vivo, mouse; conditions: single IP injection 10 nmol/kg
B6 mice = experiment: Glucose tolerance test; format: in vivo, mouse; conditions: B6 mice fasted overnight, 10 nmol/kg IP, glucose 2 g/kg IP 30 min later
[1] = Ex vivo mouse plasma stability testing; format: in vitro ADME; conditions: for plasma half-life, fold greater than the natural GLP-1 peptide: ex vivo mouse plasma, 10 μM, 37°C, LC/MS/MS
proteinase K = proteinase K (Parengyodontium album, UniProt P06873); experiment: Peptide proteolysis assay with proteinase K, intact peptide by LC/MS; conditions: 50 mM Tris HCl pH 7.4, LC/MS
Chain of proteinase K (P06873 106-384): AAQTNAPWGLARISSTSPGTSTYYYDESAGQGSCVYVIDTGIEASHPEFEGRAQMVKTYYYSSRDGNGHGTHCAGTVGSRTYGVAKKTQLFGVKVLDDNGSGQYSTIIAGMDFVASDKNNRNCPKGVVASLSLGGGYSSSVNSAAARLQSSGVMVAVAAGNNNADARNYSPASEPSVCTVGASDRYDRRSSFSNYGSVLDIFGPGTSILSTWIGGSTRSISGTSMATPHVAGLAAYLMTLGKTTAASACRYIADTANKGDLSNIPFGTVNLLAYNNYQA

## CC[C@H](C)[C@@H]1NC(=O)[C@H](Cc2ccccc2)NC(=O)[C@H](CCC(=O)O)NC(=O)[C@H](CCCCN)NC(=O)[C@H](C)NC(=O)[C@H](C)NC(=O)[C@@]2(CCCC=CCCCCCC[C@@](C)(NC(=O)[C@H](CC(=O)O)NC(=O)[C@H](CO)NC(=O)[C@@H](NC(=O)[C@H](Cc3ccccc3)NC(=O)[C@@H](NC(=O)CNC(=O)[C@H](CCC(=O)O)NC(=O)C(C)(C)NC(=O)[C@@H](N)Cc3c[nH]cn3)[C@@H](C)O)[C@@H](C)O)C(=O)N[C@@H](CO)C(=O)N[C@@H](CO)C(=O)N[C@@H](Cc3ccc(O)cc3)C(=O)N[C@@H](CC(C)C)C(=O)N[C@@H](CCC(=O)O)C(=O)NCC(=O)N2)CCCC=CCCCCCC[C@@](C)(C(=O)N[C@@H](Cc2c[nH]c3ccccc23)C(=O)N[C@@H](CC(C)C)C(=O)N[C@H](C(=O)N[C@@H](CCCCN)C(=O)NCC(=O)N[C@@H](CCCNC(=N)N)C(N)=O)C(C)C)NC1=O [SAH-GLP-1-A8J(16,23,30)]
Leprdb mice; 15 min p=0.0032, 30 min p=0.0001 vs semaglutide
  initial reduction in serum glucose: more rapid, initial reduction in serum glucose compared to semaglutide
Leprdb mice; sustained for 12 hours, n=8
  fold reduction in glucose level compared to vehicle and wild-type GLP-1: 2–2.5 fold
B6 mice
  time to euglycemia after the glucose bolus (GTT): ≤ 60 min
[1]
  plasma half-life, fold greater than the natural GLP-1 peptide: 23 fold
[1]; mouse, plasma (freshly drawn, lithium heparin)
  half-life at 10 µM: 5.33 h
Proteinase K
  fold improvement of proteinase K half-life compared to control (wild-type) GLP-1: over 24 fold

## CC[C@H](C)[C@H](NC(=O)[C@H](Cc1ccccc1)NC(=O)[C@H](CCC(=O)O)NC(=O)[C@H](CCCCNC(=O)COCCOCCNC(=O)COCCOCCNC(=O)CC[C@H](NC(=O)CCCCCCCCCCCCCCCCC(=O)O)C(=O)O)NC(=O)[C@H](C)NC(=O)[C@H](C)NC(=O)[C@H](CCC(N)=O)NC(=O)CNC(=O)[C@H](CCC(=O)O)NC(=O)[C@H](CC(C)C)NC(=O)[C@H](Cc1ccc(O)cc1)NC(=O)[C@H](CO)NC(=O)[C@H](CO)NC(=O)[C@@H](NC(=O)[C@H](CC(=O)O)NC(=O)[C@H](CO)NC(=O)[C@@H](NC(=O)[C@H](Cc1ccccc1)NC(=O)[C@@H](NC(=O)CNC(=O)[C@H](CCC(=O)O)NC(=O)C(C)(C)NC(=O)[C@@H](N)Cc1cnc[nH]1)[C@@H](C)O)[C@@H](C)O)C(C)C)C(=O)N[C@@H](C)C(=O)N[C@@H](Cc1c[nH]c2ccccc12)C(=O)N[C@@H](CC(C)C)C(=O)N[C@H](C(=O)N[C@@H](CCCNC(=N)N)C(=O)NCC(=O)N[C@@H](CCCNC(=N)N)C(=O)NCC(=O)O)C(C)C [semaglutide, reference compound]
[1]
  plasma half-life, fold greater than the natural GLP-1 peptide: 12 fold
